Results reported in patent EP0909764A1, “11 Beta-Benzaldoxim-9 Alpha, 10 Alpha-epoxy-estr-4-en-derivatives, a process for their production and pharmaceutical compositions containing them” (JENAPHARM GmbH, priority 1997, dated 1999).

Key:
[1] = biological target: T1, Progesteronrezeptor (Oryctolagus cuniculus, UniProt P06186); test: Receptor binding affinity, competitive binding with 3H-ORG 2058 in uterus cytosol; design: species or system Kaninchen; details: uterus cytosol of estradiol-primed rabbit; tracer 3H-ORG 2058 5nM; 18 h at 0-4°C; quotient of IC50 values x 100 %
T1 construct: Rezeptoren im Cytosol aus tierischen Target-Organen; from tissue; host or cells: uterus cytosol of estradiol-primed rabbit
T1 sequence (P06186 1-930): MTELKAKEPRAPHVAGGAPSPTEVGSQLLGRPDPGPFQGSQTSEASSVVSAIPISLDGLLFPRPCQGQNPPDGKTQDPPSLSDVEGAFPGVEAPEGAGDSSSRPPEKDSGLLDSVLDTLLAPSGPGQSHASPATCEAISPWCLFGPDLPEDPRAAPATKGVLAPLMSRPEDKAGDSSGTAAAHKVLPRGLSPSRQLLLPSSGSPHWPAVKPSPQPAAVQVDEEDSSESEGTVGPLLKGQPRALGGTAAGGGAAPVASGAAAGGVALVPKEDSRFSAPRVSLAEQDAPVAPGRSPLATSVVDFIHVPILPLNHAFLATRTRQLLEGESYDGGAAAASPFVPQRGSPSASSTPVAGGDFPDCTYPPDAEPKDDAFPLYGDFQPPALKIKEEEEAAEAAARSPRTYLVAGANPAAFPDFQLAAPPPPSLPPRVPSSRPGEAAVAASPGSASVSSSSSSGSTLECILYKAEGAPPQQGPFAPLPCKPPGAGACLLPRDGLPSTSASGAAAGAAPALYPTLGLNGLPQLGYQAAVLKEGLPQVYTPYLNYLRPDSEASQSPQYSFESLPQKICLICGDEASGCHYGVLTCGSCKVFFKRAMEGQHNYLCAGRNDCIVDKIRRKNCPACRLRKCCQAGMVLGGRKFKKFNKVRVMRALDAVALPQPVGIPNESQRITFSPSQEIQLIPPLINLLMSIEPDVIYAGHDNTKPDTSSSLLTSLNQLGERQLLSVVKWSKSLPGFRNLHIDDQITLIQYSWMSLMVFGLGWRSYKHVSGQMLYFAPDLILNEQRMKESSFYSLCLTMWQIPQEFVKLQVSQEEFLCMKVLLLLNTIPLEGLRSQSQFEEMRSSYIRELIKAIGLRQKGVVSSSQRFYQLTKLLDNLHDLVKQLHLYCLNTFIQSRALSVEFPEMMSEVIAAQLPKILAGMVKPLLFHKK
Description: (§1) Die Rezeptor-Bindungsaffinität wurde bestimmt durch competitive Bindung eines spezifisch bindenden ^3H-markierten Hormons (Tracer) und der zu testenden Verbindung an Rezeptoren im Cytosol aus tierischen Target-Organen. Dabei wurden Rezeptorsättigung und Reaktionsgleichgewicht angestrebt. Folgende Inkubationsbe-dingungen wurden gewählt: • Progesteron-Rezeptor: Uterus-Cytosol des Estradiol-geprimten Kannchens, aufbe-wahrt bei -30° C. Puffer für Homogenisation und Inkubation: TED-Puffer 20 mM Tris/HCl, pH= 7,4; 1mM Ethylendiamintetraacetat, 2 mM Dithiothreitol) mit 250mM Saccharose. Tracer: ^3H-ORG 2058, 5nM; Referenzsubstanz: Progesteron. • Glucocorticoid-Rezeptor: Thymus-Cytosol der adrenalectomierten Ratte. Thymi aufbewahrt bei -30 °C. Puffer: TED. Tracer: ^3H-Dexamethason, 20nM. Referenzsub-stanz: Dexamethason. • Estrogen-Rezeptor: Uterus-Cytosol des unreifen Kaninchens, aufbewahrt bei -30 °C. Puffer:TED mit 250 mM Saccharose. Tracer: ^3H-Estradiol, 3nM. Referenzsubstanz: 17β-Estradiol.
(§2) Nach einer Inkubation von Rezeptorfraktion, Tracer und Competitor für 18 h bei 0-4°C erfolgte die Trennung von gebundenem und freiem Steroid durch Einmischen von Aktivkohle/Dextran (1 % / 0,1 %), Abzentrifugieren und Messung der rezeptorgebundenen ^3H-Aktivität im Überstand.
Aus der Messung in Konzentrationsreihen wurden die IC50 für die Referenzsubstanz und für die zu testende Verbindung ermittelt und als Quotient beider Werte (x 100 %) die relative molare Bindungsaffinität bestimmt. Nach einer Inkubationsdauer von 18 Stunden bei 0-4 °C erfolgte die Trennung von gebundenen und freiem Steroid durch Einmischen von Aktivkohle/Dextran / 1%/0,1 %), abzentrifugieren und Messung der gebundenen ^3H-Aktivität im Überstand. Aus der Messung in Konzentrationsreihen wurden die IC50 für die zu testende Substanz und für die Referenzverbindung ermittelt und als Quotient beider Werte (x 100 %) die relative molare Bindungsaffinität bestimmt.

[2] = biological target: T2, Glucocorticoidrezeptor (Rattus norvegicus, UniProt P06536); test: Receptor binding affinity, competitive binding with 3H-Dexamethason in thymus cytosol; design: species or system Ratte; details: thymus cytosol of adrenalectomised rat; tracer 3H-Dexamethason 20nM; 18 h at 0-4°C; quotient of IC50 values x 100 %
T2 construct: Rezeptoren im Cytosol aus tierischen Target-Organen; from tissue; host or cells: thymus cytosol of adrenalectomised rat
T2 sequence (P06536 1-795): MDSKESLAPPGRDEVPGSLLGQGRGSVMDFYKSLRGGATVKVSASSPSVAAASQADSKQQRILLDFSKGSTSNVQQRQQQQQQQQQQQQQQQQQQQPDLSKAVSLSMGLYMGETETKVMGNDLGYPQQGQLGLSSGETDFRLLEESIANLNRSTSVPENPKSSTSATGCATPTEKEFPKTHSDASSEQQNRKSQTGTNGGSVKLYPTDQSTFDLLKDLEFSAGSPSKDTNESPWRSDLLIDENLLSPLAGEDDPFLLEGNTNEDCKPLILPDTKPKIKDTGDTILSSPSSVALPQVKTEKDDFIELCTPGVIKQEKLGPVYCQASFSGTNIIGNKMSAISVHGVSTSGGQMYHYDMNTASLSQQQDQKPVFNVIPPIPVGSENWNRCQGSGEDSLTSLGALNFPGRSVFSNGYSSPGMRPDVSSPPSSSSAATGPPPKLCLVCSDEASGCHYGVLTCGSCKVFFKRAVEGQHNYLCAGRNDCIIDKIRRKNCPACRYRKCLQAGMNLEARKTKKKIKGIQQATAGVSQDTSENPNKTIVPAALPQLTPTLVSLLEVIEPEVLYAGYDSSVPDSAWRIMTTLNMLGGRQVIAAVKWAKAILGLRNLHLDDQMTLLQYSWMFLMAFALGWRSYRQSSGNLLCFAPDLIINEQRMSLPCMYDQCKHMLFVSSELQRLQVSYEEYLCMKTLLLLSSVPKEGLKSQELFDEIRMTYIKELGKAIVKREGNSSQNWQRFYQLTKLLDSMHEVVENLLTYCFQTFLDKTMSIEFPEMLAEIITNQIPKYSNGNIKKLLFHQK
Description: as §1, with “Tracer: ^3H-ORG 2058, 5nM; Referenzsubstanz: Progesteron. • Glucocorticoid-Rezeptor: Thymus-Cytosol der adrenalectomierten Ratte.” left out
as §2
Nach einer Inkubationsdauer von 18 Stunden bei 0-4 °C erfolgte die Trennung von gebundenen und freiem Steroid durch Einmischen von Aktivkohle/Dextran / 1%/0,1 %), abzentrifugieren und Messung der gebundenen ^3H-Aktivität im Überstand.

[3] = test system: frühe Gravidität bei der Ratte; test: Inhibition of early pregnancy in the rat (early abortive effect, subcutaneous); format: in vivo; details: day 5-7 of pregnancy, empty uteri; for komplette Graviditätshemmung N#/N: N# non-pregnant females / N mated females
Description: Rattenweibchen wurde im Stadium Prooestrus angepaart. Bei Nachweis von Spermien im Vaginalbereich am nächsten Tag wird dieser als Tag 1 (d =1) der Gravidität gesetzt. Die Behandlung der Ratten mit Testsubstanz oder Vehikel erfolgt mit 0,2 ml Benzoylbenzoat /Rizinusöl (1+4 v/v) subcutan vom Tag 5 bis Tag 7 (d5 -d7), die Autopsie erfolgt am Tag d 9. Die Rate von vollständig gehemmten Graviditäten in den einzelnen Gruppen ergibt sich aus Tabelle 2. So wurde für die Beispiele 1 (J 1102), 3 (J 1116), 8 (J 1204) und 9 (J 1120) eine um den Faktor 10 überlegene Nidationshemmung gegenüber RU 486 (Mifepriston) ermittelt.

Compound	relative molare Bindungs-affinität RBA (%) zum Progesteronrezeptor Progesteron = 100 % [1] [%]	relative molare Bindungs-affinität RBA (%) zum Glucocorticoidrezeptor Dexamethason = 100 % [2] [%]	komplette Graviditätshemmung N#/N ([3]; 0,3 mg/Tier/Tag s.c.)	komplette Graviditätshemmung % ([3]; 0,3 mg/Tier/Tag s.c.) [%]	komplette Graviditätshemmung N#/N ([3]; 1 mg/Tier/Tag s.c.)	komplette Graviditätshemmung % ([3]; 1 mg/Tier/Tag s.c.) [%]	komplette Graviditätshemmung N#/N ([3]; 3 mg/Tier/Tag s.c.)	komplette Graviditätshemmung % ([3]; 3 mg/Tier/Tag s.c.) [%]
COC[C@]1(O)CC[C@H]2[C@@H]3CCC4=CC(=O)CC[C@]45O[C@]35[C@@H](c3ccc(/C=N\O)cc3)C[C@@]21C [4 ( J 1182)]	29							
CCNC(=O)O/N=C/c1ccc([C@H]2C[C@@]3(C)[C@@H](CC[C@@]3(O)COC)[C@@H]3CCC4=CC(=O)CC[C@]45O[C@]235)cc1 [16 ( J 1186)]	64	13						
COC[C@]1(OC)CC[C@H]2[C@@H]3CCC4=CC(=O)CC[C@]45O[C@]35[C@@H](c3ccc(/C=N/OC(C)=O)cc3)C[C@@]21C [5 ( J 1130)]	59	15						
CC#C[C@]1(O)CC[C@H]2[C@@H]3CCC4=CC(=O)CCC4=C3[C@@H](c3ccc(N(C)C)cc3)C[C@@]21C [RU 486, Mifepriston]		685	0/5	0	1/5	20	5/5	100
CCNC(=O)O/N=C/c1ccc([C@H]2C[C@@]3(C)[C@@H](CC[C@]3(COC)OC)[C@@H]3CCC4=CC(=O)CC[C@]45O[C@]235)cc1 [17 ( J 1131)]	68	30						
CCOC(=O)O/N=C/c1ccc([C@H]2C[C@@]3(C)[C@@H](CC[C@]3(COC)OC)[C@@H]3CCC4=CC(=O)CC[C@]45O[C@]235)cc1 [9 ( J 1120)]	63	15						
COC[C@]1(O)CC[C@H]2[C@@H]3CCC4=CC(=O)CC[C@]45O[C@]35[C@@H](c3ccc(/C=N/O)cc3)C[C@@]21C [3 ( J 1116)]	47	12						
COC[C@]1(OC)CC[C@H]2[C@@H]3CCC4=CC(=O)CC[C@]45O[C@]35[C@@H](c3ccc(/C=N/O)cc3)C[C@@]21C [1 ( J 1102)]	88	12						
COC[C@]1(O)CC[C@H]2[C@@H]3CCC4=CC(=O)CC[C@]45O[C@]35[C@@H](c3ccc(/C=N/OC(C)=O)cc3)C[C@@]21C [6 ( J 1180)]	31	8						
COC[C@]1(OC)CC[C@H]2[C@@H]3CCC4=CC(=O)CC[C@]45O[C@]35[C@@H](c3ccc(/C=N\O)cc3)C[C@@]21C [2 ( J 1160)]	49	18						
COC[C@]1(OC)CC[C@H]2[C@@H]3CCC4=CC(=O)CCC4=C3[C@@H](c3ccc(/C=N/O)cc3)C[C@@]21C [J 867]	302	77	0/5	0	5/5	100	5/5	100
CN(C)c1ccc([C@H]2C[C@]3(C)[C@@H](CC[C@]3(O)CCCO)[C@@H]3CCC4=CC(=O)CCC4=C32)cc1 [ZK 98299, Onapriston]	22	39						
